These results are taken from patent US10233188B2, “CDK2/4/6 inhibitors” (priority 2016, dated 2019).

The target of the test is CDK2/Cyclin E1 (Homo sapiens (Human), UniProt P24941). As to the kind of experiment: biochemical. The following applies: CDK2_Ki (nM), phosphorylated CDK2/Cyclin E1, 150 μM ATP, Morrison tight-binding fit.
Experimental: The assay was initiated with the addition of ATP, following a fifteen minutes pre-incubation of enzyme and inhibitor at room temperature in the reaction mixture. The reaction was stopped after 45 minutes at room temperature by the addition of 50 μL of 80 mM EDTA, pH 7.5.
For the compound `Cc1cc2cnc(NC3CCN(S(C)(=O)=O)CC3)nc2n([C@H]2CCC[C@H](O)C2)c1=O` (single isomer, unassigned) [Example 33, (−)-8-[(1R*,3R*)-3-hydroxycyclohexyl]-6-methyl-2-{[1-(methylsulfonyl)piperidin-4-yl]amino}pyrido[2,3-d]pyrimidin-7(8H)-one], the Ki came out at 42.6 nM. For `CS(=O)(=O)N1CCC(Nc2ncc3ccc(=O)n([C@@H]4CC[C@@H](O)C4)c3n2)CC1` (single isomer, unassigned) [Example 54, (−)-8-[(1R*,3R*)-3-hydroxycyclopentyl]-2-{[1-(methylsulfonyl)piperidin-4-yl]amino}pyrido[2,3-d]pyrimidin-7(8H)-one] the value was 1.44 nM; for `CNS(=O)(=O)N1CCC(Nc2ncc3ccc(=O)n([C@H]4CCC[C@]4(C)O)c3n2)CC1` (single isomer, unassigned) [Example 57, (+)-4-({8-[(1R*,2R*)-2-hydroxy-2-methylcyclopentyl]-7-oxo-7,8-dihydropyrido[2,3-d]pyrimidin-2-yl}amino)-N-methylpiperidine-1-sulfonamide], 5.21 nM. In the case of `C[C@@]1(O)CCC[C@H]1n1c(=O)ccc2cnc(NC3CCN(S(=O)(=O)NC[C@@H]4CCCO4)CC3)nc21` (single isomer, unassigned) [Example 62, (−)-4-({8-[(1R*,2R*)-2-hydroxy-2-methylcyclopentyl]-7-oxo-7,8-dihydropyrido[2,3-d]pyrimidin-2-yl}amino)-N-[(2S)-tetrahydrofuran-2-ylmethyl]piperidine-1-sulfonamide] it was 0.35 nM; in that of `C[C@]1(O)CCC[C@@H]1n1c(=O)ccc2cnc(NC3CCN(S(=O)(=O)NC[C@@H]4CCCO4)CC3)nc21` (single isomer, unassigned) [Example 63, (+)-4-({8-[(1R*,2R*)-2-hydroxy-2-methylcyclopentyl]-7-oxo-7,8-dihydropyrido[2,3-d]pyrimidin-2-yl}amino)-N-[(2S)-tetrahydrofuran-2-ylmethyl]piperidine-1-sulfonamide], 4.51 nM. In the case of `C[C@]1(O)CCC[C@@H]1n1c(=O)ccc2cnc(NC3CCN(S(=O)(=O)NC[C@H]4CCCO4)CC3)nc21` (single isomer, unassigned) [Example 65, (+)-4-({8-[(1R*,2R*)-2-hydroxy-2-methylcyclopentyl]-7-oxo-7,8-dihydropyrido[2,3-d]pyrimidin-2-yl}amino)-N-[(2R)-tetrahydrofuran-2-ylmethyl]piperidine-1-sulfonamide] it was 4.85 nM. In turn, `C[C@]1(O)CCC[C@@H]1n1c(=O)ccc2cnc(NC3CCN(S(=O)(=O)C(F)(F)F)CC3)nc21` (single isomer, unassigned) [Example 89, (+)-8-[(1R*,2R*)-2-hydroxy-2-methylcyclopentyl]-2-({1-[(trifluoromethyl)sulfonyl]piperidin-4-yl}amino)pyrido[2,3-d]pyrimidin-7(8H)-one] gave an inhibition constant (Ki) of 17.6 nM. With `CNS(=O)(=O)N1CCC(Nc2ncc3cc(C)c(=O)n([C@H]4CCC[C@]4(C)O)c3n2)CC1` (single isomer, unassigned) [Example 95, (+)-4-({8-[(1R*,2R*)-2-hydroxy-2-methylcyclopentyl]-6-methyl-7-oxo-7,8-dihydropyrido[2,3-d]pyrimidin-2-yl}amino)-N-methylpiperidine-1-sulfonamide], affinity was put at a Ki of 1.39 nM. For `Cc1cc2cnc(NC3CCN(S(=O)(=O)NC[C@@H]4CCCO4)CC3)nc2n([C@@H]2CCC[C@@]2(C)O)c1=O` (single isomer, unassigned) [Example 100, (−)-4-({8-[(1R*,2R*)-2-hydroxy-2-methylcyclopentyl]-6-methyl-7-oxo-7,8-dihydropyrido[2,3-d]pyrimidin-2-yl}amino)-N-[(2S)-tetrahydrofuran-2-ylmethyl]piperidine-1-sulfonamide] the value was 0.27 nM; for `Cc1cc2cnc(NC3CCN(S(=O)(=O)NC[C@@H]4CCCO4)CC3)nc2n([C@H]2CCC[C@]2(C)O)c1=O` (single isomer, unassigned) [Example 101, (+)-4-({8-[(1R*,2R*)-2-hydroxy-2-methylcyclopentyl]-6-methyl-7-oxo-7,8-dihydropyrido[2,3-d]pyrimidin-2-yl}amino)-N-[(2S)-tetrahydrofuran-2-ylmethyl]piperidine-1-sulfonamide], 3.59 nM.

The compound `Cc1cc2cnc(NC3CCN(S(=O)(=O)NC[C@H]4CCCO4)CC3)nc2n([C@@H]2CCC[C@@]2(C)O)c1=O` (single isomer, unassigned) [Example 102, (−)-4-({8-[(1R*,2R*)-2-hydroxy-2-methylcyclopentyl]-6-methyl-7-oxo-7,8-dihydropyrido[2,3-d]pyrimidin-2-yl}amino)-N-[(2H)-tetrahydrofuran-2-ylmethyl]piperidine-1-sulfonamide] had a Ki of 0.24 nM. This Ki is about 15-fold lower than that of the compound before. In the case of `Cc1cc2cnc(NC3CCN(S(=O)(=O)NC[C@H]4CCCO4)CC3)nc2n([C@H]2CCC[C@]2(C)O)c1=O` (single isomer, unassigned) [Example 103, (+)-4-({8-[(1R*,2R*)-2-hydroxy-2-methylcyclopentyl]-6-methyl-7-oxo-7,8-dihydropyrido[2,3-d]pyrimidin-2-yl}amino)-N-[(2R)-tetrahydrofuran-2-ylmethyl]piperidine-1-sulfonamide] it was 3.46 nM; in that of `CS(=O)(=O)N1CC[C@@H](Nc2ncc3cc(CCO)c(=O)n(C4CCCC4)c3n2)[C@H](F)C1` (single isomer, unassigned) [Example 157, (+)-8-cyclopentyl-2-{[(3S*,4S*)-3-fluoro-1-(methylsulfonyl)piperidin-4-yl]amino}-6-(2-hydroxyethyl)pyrido[2,3-d]pyrimidin-7(8H)-one], 36 nM; in that of `COCCc1cc2cnc(N[C@@H]3CCN(S(C)(=O)=O)C[C@H]3F)nc2n(C2CCCC2)c1=O` (single isomer, unassigned) [Example 159, (+)-8-cyclopentyl-2-{[(3S*,4S*)-3-fluoro-1-(methylsulfonyl)piperidin-4-yl]amino}-6-(2-methoxyethyl)pyrido[2,3-d]pyrimidin-7(8H)-one], 95.2 nM. In the case of `CS(=O)(=O)N1CC[C@@H](Nc2ncc3cc(CC(N)=O)c(=O)n(C4CCCC4)c3n2)[C@H](F)C1` (single isomer, unassigned) [Example 161, (+)-2-(8-cyclopentyl-2-{[(3S*,4S*)-3-fluoro-1-(methylsulfonyl)piperidin-4-yl]amino}-7-oxo-7,8-dihydropyrido[2,3-d]pyrimidin-6-yl)acetamide] it was 135 nM; in that of `CC(=O)c1c(C)c2cnc(NC3CCN(S(C)(=O)=O)CC3)nc2n([C@H]2CCC[C@]2(C)O)c1=O` (single isomer, unassigned) [Example 178, (+)-6-acetyl-8-[(1R*,2R*)-2-hydroxy-2-methylcyclopentyl]-5-methyl-2-{[1-(methylsulfonyl)piperidin-4-yl]amino}pyrido[2,3-d]pyrimidin-7(8H)-one], 9.04 nM; in that of `C[C@@H]1[C@H](O)CC[C@H]1n1c(=O)c(CC(F)F)cc2cnc(NC3CCN(S(C)(=O)=O)CC3)nc21` (single isomer, unassigned) [Example 206, (−)-6-(2,2-difluoroethyl)-8-[(1R*,2S*,3R*)-3-hydroxy-2-methylcyclopentyl]-2-{[1-(methylsulfonyl)piperidin-4-yl]amino}pyrido[2,3-d]pyrimidin-7(8H)-one], 0.57 nM. In the case of `C[C@@H]1[C@H](O)CC[C@@H]1n1c(=O)ccc2cnc(NC3CCN(S(C)(=O)=O)CC3)nc21` (single isomer, unassigned) [Example 207, (+)-8-[(1R*,2R*,3S*)-3-hydroxy-2-methylcyclopentyl]-2-{[1-(methylsulfonyl)piperidin-4-yl]amino}pyrido[2,3-d]pyrimidin-7(8H)-one] it was 5.05 nM; in that of `C[C@@H]1[C@H](n2c(=O)ccc3cnc(NC4CCN(S(C)(=O)=O)CC4)nc32)CC[C@@H]1O` (single isomer, unassigned) [Example 208, (−)-8-[(1R*,2R*,3S*)-3-hydroxy-2-methylcyclopentyl]-2-{[1-(methylsulfonyl)piperidin-4-yl]amino}pyrido[2,3-d]pyrimidin-7(8H)-one], 12.4 nM; in that of `C[C@H]1[C@@H](O)CCC[C@@H]1n1c(=O)ccc2cnc(NC3CCN(S(C)(=O)=O)CC3)nc21` (single isomer, unassigned) [Example 222, (+)-8-[(1S*,2R*,3S*)-3-hydroxy-2-methylcyclohexyl]-2-{[1-(methylsulfonyl)piperidin-4-yl]amino}pyrido[2,3-d]pyrimidin-7(8H)-one], 2.06 nM. Turning to `C[C@@]1(O)CCCC1n1c(=O)ccc2cnc(NC3CCN(S(=O)(=O)NC[C@H]4CCCO4)CC3)nc21` (single isomer, unassigned; (-)) [Example 64, (−)-4-({8-[(1R*,2R*)-2-hydroxy-2-methylcyclopentyl]-7-oxo-7,8-dihydropyrido[2,3-d]pyrimidin-2-yl}amino)-N-[(2R)-tetrahydrofuran-2-ylmethyl]piperidine-1-sulfonamide], the Ki was found to be 0.35 nM. `CC1(C)CC(Nc2ncc3cc(CCO)c(=O)n(C4CCCC4)c3n2)CCN1S(C)(=O)=O` (single isomer, unassigned; (-)) [Example 163, (−)-8-cyclopentyl-2-{[2,2-dimethyl-1-(methylsulfonyl)piperidin-4-yl]amino}-6-(2-hydroxyethyl)pyrido[2,3-d]pyrimidin-7(8H)-one] gave an inhibition constant (Ki) of 63.2 nM.

Regarding `C[C@@]1(O)CCC[C@H]1n1c(=O)ccc2cnc(NC3CCN(S(=O)(=O)C4CCS(=O)(=O)C4)CC3)nc21` (single isomer, unassigned; isomer b) [Example 71], the Ki stood at 0.25 nM. On to `CN(C)S(=O)(=O)N1CCC(Nc2ncc3ccc(=O)n(C4CCCC4)c3n2)CC1` [Example 12, 4-[(8-cyclopentyl-7-oxo-7,8-dihydropyrido[2,3-d]pyrimidin-2-yl)amino]-N,N-dimethylpiperidine-1-sulfonamide], for which the Ki was found to be 1.12 nM. On to `O=c1ccc2cnc(NC3CCN(S(=O)(=O)C(F)F)CC3)nc2n1C1CCCC1` [Example 14, 8-cyclopentyl-2-({1-[(difluoromethyl)sulfonyl]piperidin-4-yl}amino)pyrido[2,3-d]pyrimidin-7(8H)-one], for which the inhibition constant Ki turned out to be 2.5 nM. This Ki is about 2.2-fold higher than that of the compound before.
